Reference: PMC4061319 (Biotechnology for Biofuels, 2014)

Key:
[1] = target: T1, SdCBP (cellobiose phosphorylase from Saccharophagus degradans) (Saccharophagus degradans, UniProt Q21L49); experiment: initial rates of phosphorolysis from continuous G1P colorimetric assay, non-linear regression; type: biochemical; details: no xylose; 5 mM inorganic phosphate, 20 mM MES pH 6.0, 30°C, 10 nM enzyme
T1 construct: gene cep94A; CBP is a homodimer

[2] = target: T1, SdCBP (cellobiose phosphorylase from Saccharophagus degradans); experiment: competition assay of cellobiose phosphorolysis at […] xylose; type: biochemical; details: mixed inhibitor versus cellobiose; 5 mM inorganic phosphate, 20 mM MES pH 6.0, 30°C

T1 sequence (Q21L49 entry or part of it): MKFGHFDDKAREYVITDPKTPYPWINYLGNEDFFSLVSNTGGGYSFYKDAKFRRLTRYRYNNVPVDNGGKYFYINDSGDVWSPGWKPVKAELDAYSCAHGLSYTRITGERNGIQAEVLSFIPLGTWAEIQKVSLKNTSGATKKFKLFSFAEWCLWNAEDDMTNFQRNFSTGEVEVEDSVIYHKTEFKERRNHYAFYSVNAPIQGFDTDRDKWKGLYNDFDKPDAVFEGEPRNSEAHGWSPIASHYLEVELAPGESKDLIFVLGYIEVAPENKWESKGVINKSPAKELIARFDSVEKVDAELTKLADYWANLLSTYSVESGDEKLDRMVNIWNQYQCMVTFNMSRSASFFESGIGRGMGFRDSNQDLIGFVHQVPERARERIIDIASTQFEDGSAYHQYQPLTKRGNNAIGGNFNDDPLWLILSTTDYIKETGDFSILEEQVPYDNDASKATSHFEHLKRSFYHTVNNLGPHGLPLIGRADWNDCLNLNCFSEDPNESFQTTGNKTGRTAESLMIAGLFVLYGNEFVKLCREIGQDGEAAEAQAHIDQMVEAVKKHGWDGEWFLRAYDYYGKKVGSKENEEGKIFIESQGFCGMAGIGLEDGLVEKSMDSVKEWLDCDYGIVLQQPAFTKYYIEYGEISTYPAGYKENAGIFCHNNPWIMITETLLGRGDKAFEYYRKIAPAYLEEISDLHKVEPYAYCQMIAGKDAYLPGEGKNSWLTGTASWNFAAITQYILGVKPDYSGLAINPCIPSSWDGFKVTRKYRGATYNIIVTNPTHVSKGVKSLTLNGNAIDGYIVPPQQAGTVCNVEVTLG

SMILES	KM,app [1]	competition assay of cellobiose phosphorolysis at 0, 2.5 and 5 mM xylose [2]
OC[C@H]1O[C@@H](O[C@H]2[C@H](O)[C@@H](O)C(O)O[C@@H]2CO)[C@H](O)[C@@H](O)[C@@H]1O (some centres unmarked) [cellobiose]	Initial rates of cellobiose phosphorolysis were calculated from the amount of G1P produced	–
OC1OC[C@@H](O)[C@H](O)[C@H]1O (some centres unmarked) [xylose]	–	identifying xylose as a mixed-inhibitor for the cellobiose phosphorolysis reaction
